Measurements published in patent US11851391B2, “Antifungal compounds and methods of forming the same” (University of Kentucky Research Foundation, priority 2018, dated 2023).
Values after ≈ are worked out from the molar mass of the structure shown. Like-named read-outs stand apart in the source and are kept apart here.

Columns and labels:
[1] = tested on: C. albicans ATCC MYA-1003(R) (strain G); test: MIC determination, in vitro antifungal assay (CLSI M27-A3); format: cell-based, Candida albicans; settings: MIC-0, 48 h at 35° C.
How it was run: (§1)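 Broth microdilution per CLSI M27-A3 in RPMI 1640 buffered to pH 7.0 with 0.165 M MOPS at 35° C. Overnight YPD cultures were adjusted to OD600 0.12 (˜1×10^6 CFU/mL), then diluted to an inoculum of 2-4×10^3 CFU/mL in RPMI 1640; final DMSO stayed below 1.25%.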

[2] = tested on: C. albicans ATCC MYA-2876(S) (strain C); test: as above; format: cell-based, Candida albicans; settings: MIC-0, 48 h at 35° C.
How it was run: as §1

[3] = tested on: Candida albicans ATCC 10231(R) (strain A); test: as above; format: cell-based; settings: MIC-0 (no visible growth), 48 h at 35° C.
How it was run: (§2)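 Yeast from a single colony is grown overnight in YPD at 35° C with shaking, adjusted to OD600 0.12, then diluted into RPMI 1640 to 2-4×10^3 CFU/mL. Compounds are tested by modified CLSI M27-A3 microdilution, DMSO <1.25%, and MIC is scored as complete inhibition.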

[4] = tested on: Candida parapsilosis ATCC 22019 (strain J); test: as above; format: cell-based; settings: strain J, MIC-0, 48 h at 35° C.
How it was run: as §2

[5] = tested on: Aspergillus terreus ATCC MYA-3633 (strain M); test: MIC determination against filamentous fungi (CLSI M38-A2); format: cell-based; settings: MIC-0, 48 h at 35° C.
How it was run: (§3)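 Broth microdilution followed CLSI M38-A2 in RPMI 1640 buffered to pH 7.0 with 0.165 M MOPS. Spores were harvested from PDA cultures, counted by hemocytometer and added at 5×10^5 CFU/mL final, then incubated 48 h at 35° C. MIC was taken as complete growth inhibition versus growth control (MIC-0), run in triplicate.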

[6] = tested on: Aspergillus nidulans ATCC 38163 (strain L); test: as above; format: cell-based; settings: MIC-0, 48 h at 35° C.
How it was run: as §3

[7] = tested on: Aspergillus flavus ATCC MYA-3631 (strain K); test: as above; format: cell-based; settings: MIC-0, 48 h at 35° C.
How it was run: as §3

[8] = tested on: C. albicans ATCC 90819(R) (strain D); test: MIC determination, in vitro antifungal assay (CLSI M27-A3); format: cell-based, Candida albicans; settings: MIC-0, 48 h at 35° C.
How it was run: as §2

[9] = tested on: C. albicans ATCC 64124(R) (strain B); test: as above; format: cell-based, Candida albicans; settings: strain B, MIC-0, 48 h at 35° C.
How it was run: as §2

[10] = tested on: C. albicans ATCC MYA-1237(R) (strain F); test: as above; format: cell-based, Candida albicans; settings: MIC-0, 48 h at 35° C.
How it was run: as §2

[11] = tested on: C. albicans ATCC MYA-2310(S) (strain E); test: as above; format: cell-based, Candida albicans; settings: MIC-0, 48 h at 35° C.
How it was run: as §2

[12] = Candida albicans, 48 h, read-out: MIC
[13] = Candida albicans, ATCC10231, 48 h, read-out: MIC
[14] = Lodderomyces parapsilosis, ATCC22019, 48 h, read-out: MIC
[15] = Aspergillus terreus, 48 h, read-out: MIC
[16] = Aspergillus nidulans, ATCC38163, 48 h, read-out: MIC
[17] = Aspergillus flavus, 48 h, read-out: MIC
[18] = Candida albicans, ATCC90819, 48 h, read-out: MIC
[19] = Candida albicans, ATCC64124, 48 h, read-out: MIC

Row | MIC [1, 12] [µg/mL] | MIC [1] [µg/mL] | MIC [2, 12] [µg/mL] | MIC [3, 13] [µg/mL] | MIC [3] [µg/mL] | MIC [4, 14] [µg/mL] | MIC [5, 15] [µg/mL] | MIC [6, 16] [µg/mL] | MIC [6] [µg/mL] | MIC [7, 17] [µg/mL] | MIC [7] [µg/mL] | MIC [8, 18] [µg/mL] | MIC [9, 19] [µg/mL] | MIC [10, 12] [µg/mL] | MIC [11, 12] [µg/mL] | MIC [2] [µg/mL] | MIC [8] [µg/mL] | MIC [10] [µg/mL] | MIC [9] [µg/mL] | MIC [11] [µg/mL] | Structure (SMILES) | other results
1 | 7.8 to 15.6 (≈ 17.3 to 34.6 µM) | 7.8 (≈ 17.3 µM) | 7.8 to 15.6 (≈ 17.3 to 34.6 µM) | 7.8 to 15.6 (≈ 17.3 to 34.6 µM) | 7.8 (≈ 17.3 µM) | 7.8 to 15.6 (≈ 17.3 to 34.6 µM) | > 31.3 | 7.8 to 15.6 (≈ 17.3 to 34.6 µM) | 7.8 (≈ 17.3 µM) | > 31.3 |  | 7.8 to 15.6 (≈ 17.3 to 34.6 µM) | 3.9 (≈ 8.66 µM) | 7.8 to 15.6 (≈ 17.3 to 34.6 µM) | 3.9 (≈ 8.66 µM) | 7.8 (≈ 17.3 µM) | 7.8 (≈ 17.3 µM) | 15.6 (≈ 34.6 µM) | 3.9 (≈ 8.66 µM) | 3.9 (≈ 8.66 µM) | COc1ccc(N/N=C/c2ccc(-c3ccc(/C=N/Nc4ccc(OC)cc4)cc3)cc2)cc1 [Compound 15b] | MIC [4]: 15.6 µg/mL (≈ 34.6 µM)
2 | 1.95 to 3.9 (≈ 4.57 to 9.14 µM) | 3.9 (≈ 9.14 µM) | 7.8 (≈ 18.3 µM) | 1.95 to 3.9 (≈ 4.57 to 9.14 µM) | 1.59 to 3.9 | 31.3 (≈ 73.4 µM) | > 31.3 | 1.95 to 3.9 (≈ 4.57 to 9.14 µM) | 3.9 (≈ 9.14 µM) | 15.6 (≈ 36.6 µM) |  | > 31.3 | 15.6 (≈ 36.6 µM) | 15.6 (≈ 36.6 µM) | 7.8 (≈ 18.3 µM) |  |  |  |  |  | Fc1ccc(N/N=C/c2ccc(-c3cccc(/C=N/Nc4ccc(F)cc4)c3)cc2)cc1 [Compound 17a] | 
3 | 7.8 to 15.6 (≈ 18.3 to 36.6 µM) | 7.8 (≈ 18.3 µM) | 7.8 to 15.6 (≈ 18.3 to 36.6 µM) | 7.8 to 15.6 (≈ 18.3 to 36.6 µM) | 7.8 (≈ 18.3 µM) | 31.3 (≈ 73.4 µM) | > 31.3 | 7.8 to 15.6 (≈ 18.3 to 36.6 µM) | 7.8 (≈ 18.3 µM) | 7.8 to 15.6 (≈ 18.3 to 36.6 µM) | 7.8 (≈ 18.3 µM) | 31.3 (≈ 73.4 µM) | 7.8 to 15.6 (≈ 18.3 to 36.6 µM) | 7.8 to 15.6 (≈ 18.3 to 36.6 µM) | 7.8 to 15.6 (≈ 18.3 to 36.6 µM) | 7.8 (≈ 18.3 µM) |  | 7.8 (≈ 18.3 µM) | 15.6 (≈ 36.6 µM) | 15.6 (≈ 36.6 µM) | Fc1ccc(N/N=C/c2ccc(-c3ccc(/C=N/Nc4ccc(F)cc4)cc3)cc2)cc1 [Compound 17b] | 

The next lines start with the compound.

Row | Structure (SMILES) | MIC [1, 12] [µg/mL] | MIC [1] [µg/mL] | MIC [2, 12] [µg/mL] | MIC [3, 13] [µg/mL] | MIC [3] [µg/mL] | MIC [4, 14] [µg/mL] | MIC [5, 15] [µg/mL] | MIC [6, 16] [µg/mL] | MIC [6] [µg/mL] | MIC [7, 17] [µg/mL] | MIC [7] [µg/mL] | MIC [8, 18] [µg/mL] | MIC [9, 19] [µg/mL] | MIC [10, 12] [µg/mL] | MIC [11, 12] [µg/mL] | MIC [2] [µg/mL] | MIC [8] [µg/mL] | MIC [10] [µg/mL] | MIC [9] [µg/mL] | MIC [11] [µg/mL] | other results
4 | C(=N\Nc1ccccc1)/c1ccc(-c2cccc(/C=N/Nc3ccccc3)c2)cc1 [Compound 7a] | 1.95 to 3.9 (≈ 4.99 to 9.99 µM) | 3.9 (≈ 9.99 µM) | 31.3 (≈ 80.2 µM) | 1.95 to 3.9 (≈ 4.99 to 9.99 µM) | 1.95 (≈ 4.99 µM) | > 31.3 | 7.8 to 15.6 (≈ 20 to 39.9 µM) | 1.95 to 3.9 (≈ 4.99 to 9.99 µM) | 1.95 (≈ 4.99 µM) | 1.95 to 3.9 (≈ 4.99 to 9.99 µM) | 3.9 (≈ 9.99 µM) | 31.3 (≈ 80.2 µM) | 31.3 (≈ 80.2 µM) | 31.3 (≈ 80.2 µM) | 31.3 (≈ 80.2 µM) |  |  |  |  |  | MIC [5]: 15.6 µg/mL (≈ 39.9 µM)
5 | Fc1cccc(N/N=C/c2ccc(-c3cccc(/C=N/Nc4cccc(F)c4)c3)cc2)c1 [Compound 12a] | 7.8 to 15.6 (≈ 18.3 to 36.6 µM) | 7.8 (≈ 18.3 µM) | 7.8 to 15.6 (≈ 18.3 to 36.6 µM) | 1.95 to 3.9 (≈ 4.57 to 9.14 µM) | 1.95 (≈ 4.57 µM) | 31.3 (≈ 73.4 µM) | > 31.3 | 7.8 to 15.6 (≈ 18.3 to 36.6 µM) | 7.8 (≈ 18.3 µM) | 1.95 to 3.9 (≈ 4.57 to 9.14 µM) | 3.9 (≈ 9.14 µM) | 7.8 to 15.6 (≈ 18.3 to 36.6 µM) | > 31.3 | 7.8 to 15.6 (≈ 18.3 to 36.6 µM) | > 31.3 | 7.8 (≈ 18.3 µM) | 15.6 (≈ 36.6 µM) | 15.6 (≈ 36.6 µM) |  |  | 
6 | COc1ccc(N/N=C/c2ccc(-c3cccc(/C=N/Nc4ccc(OC)cc4)c3)cc2)cc1 [Compound 15a] |  |  | 1.95 to 3.9 (≈ 4.33 to 8.66 µM) | 1.95 to 3.9 (≈ 4.33 to 8.66 µM) | 1.95 (≈ 4.33 µM) | > 31.3 | > 31.3 | 31.3 (≈ 69.5 µM) |  | > 31.3 |  | 1.95 to 3.9 (≈ 4.33 to 8.66 µM) | 15.6 (≈ 34.6 µM) | 1.95 to 3.9 (≈ 4.33 to 8.66 µM) |  | 3.9 (≈ 8.66 µM) | 3.9 (≈ 8.66 µM) | 3.9 (≈ 8.66 µM) |  |  | 
7 | C/C(=N\Nc1ccc(F)cc1)c1ccc(-c2ccc(/C(C)=N/Nc3ccc(F)cc3)cc2)cc1 [Compound 17c, 4,4′-bis((E)-1-(2-(4-fluorophenyl)hydrazono)ethyl)-1,1′-biphenyl] | 7.8 (≈ 17.2 µM) |  | 1.95 to 3.9 (≈ 4.29 to 8.58 µM) | 1.95 to 3.9 (≈ 4.29 to 8.58 µM) | 1.95 (≈ 4.29 µM) | 15.6 (≈ 34.3 µM) | > 31.3 | 7.8 (≈ 17.2 µM) |  | > 31.3 |  | 7.8 (≈ 17.2 µM) | 1.95 to 3.9 (≈ 4.29 to 8.58 µM) | 7.8 (≈ 17.2 µM) | 1.95 to 3.9 (≈ 4.29 to 8.58 µM) | 3.9 (≈ 8.58 µM) |  |  | 3.9 (≈ 8.58 µM) | 1.95 (≈ 4.29 µM) | 
8 | Fc1ccc(N/N=C/c2ccc(-c3cccc(/C=N/Nc4ccc(F)cc4F)c3)cc2)c(F)c1 [Compound 20a] | 7.8 (≈ 16.9 µM) |  | 15.6 (≈ 33.7 µM) | 1.95 to 3.9 (≈ 4.22 to 8.43 µM) | 3.9 (≈ 8.43 µM) | 31.3 (≈ 67.7 µM) | 31.3 (≈ 67.7 µM) | 7.8 (≈ 16.9 µM) |  | 7.8 (≈ 16.9 µM) |  | 15.6 (≈ 33.7 µM) | 7.8 (≈ 16.9 µM) | 7.8 (≈ 16.9 µM) | 15.6 (≈ 33.7 µM) |  |  |  |  |  | 
